This is an account of results in ChEMBL document CHEMBL1201862, “PubChem BioAssay data set” (2004).

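48-hour exposure; five concentrations; linearly interpolated endpoints. GI50: concentration for 50% inhibition of growth.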 Active and inactive are the calls of the source. No stated cut-off is given here; in the data, active = GI50 up to about 1.1 µM and inactive = higher.

Some test systems named below: DLD-1; U-251; SK-MEL-2; OVCAR-4; M14; OVCAR-5; HT-29; NCI-H226; SF-539; HCC 2998; EKVX; IGROV-1; M19-MEL; HCT-15; SR; COLO 205; SN12C.
Assay in all cases: inhibition of tumour cell growth, NCI panel, 48 h

With `O=c1[nH]c(=O)n([C@@H]2C[C@H](CO)[C@H](O)C2)cc1/C=C/Br`, the GI50 with DLD-1, in the test on U-251, in the test with SK-MEL-2, in the test on OVCAR-4, in the test with M14 and in the test with OVCAR-5 was > 100 µM (inactive) in each case. The GI50 in the test with HT-29, with NCI-H226, in the test with SF-539, with HCC 2998, in the test on EKVX and with IGROV-1 was > 100 µM (inactive) in each case. Further, the GI50 in the test on M19-MEL was > 100 µM (inactive); in the test on HCT-15 it was > 100 µM.

For the molecule `Cc1ccc(NC(=O)CC/C(CC(=O)C(C)(C)C)=N\Nc2ccc([N+](=O)[O-])cc2[N+](=O)[O-])cc1C`, the GI50 with DLD-1 is 47.6 µM (inactive); with U-251, 58.1 µM (inactive); in the test on SK-MEL-2, 76.4 µM (inactive); with M14, 0.0129 µM (active); with OVCAR-5, > 100 µM (inactive); in the test with HT-29, 57 µM (inactive). The GI50 in the test with NCI-H226 was > 100 µM (inactive); with SR it was 39.7 µM (inactive); with SF-539 it was 59.4 µM (inactive); in the test with EKVX it was > 100 µM (inactive); in the test on IGROV-1, 90.6 µM (inactive); in the test on COLO 205 it was > 100 µM (inactive). Besides, the values for the GI50 in the test on M19-MEL and in the test on HCT-15 were 47.5 µM (inactive) and 41.5 µM, respectively.

Turning to `NC1=NN(c2ccccc2)C(=O)C1C(=O)CCC(=O)Nc1cccc(Cl)c1` (centres undefined), the GI50 in the test on DLD-1, with U-251, with SK-MEL-2, with OVCAR-4, with M14 and in the test on OVCAR-5 was > 100 µM (inactive) in each case. The GI50 in the test on SN12C, in the test on HT-29, in the test with NCI-H226, with SF-539, in the test with HCC 2998 and in the test with EKVX was > 100 µM (inactive) in each case. Besides, the GI50 in the test on IGROV-1 is > 100 µM (inactive); in the test on COLO 205 it was > 100 µM (inactive); in the test with M19-MEL, > 100 µM (inactive); in the test with HCT-15, > 100 µM.

For the molecule `O=c1cc(-c2ccccc2)nc(/C=C(\O)c2ccncc2)n1-c1ccccc1`, the GI50 in the test on DLD-1, in the test on U-251, with SK-MEL-2, in the test with OVCAR-4, in the test with M14 and with OVCAR-5 was > 100 µM (inactive) in each case. For the same molecule, the GI50 in the test with SN12C, with HT-29, in the test with NCI-H226, in the test on SF-539, in the test with HCC 2998 and in the test on EKVX was > 100 µM (inactive) throughout. For the same molecule, the GI50 in the test on IGROV-1 was > 100 µM (inactive); with COLO 205 it was > 100 µM (inactive); in the test on M19-MEL it was > 100 µM (inactive); in the test on HCT-15, > 100 µM.

With `OCC(O)C(OC1OC(CO)C(O)C(O)C1O)c1nn(-c2ccc(F)cc2)c2nc3cc(Cl)c(Cl)cc3cc12` (centres undefined), the GI50 with DLD-1, in the test with U-251, in the test with OVCAR-4, with M14, in the test with OVCAR-5 and with SN12C was > 100 µM (inactive) throughout. Also, the GI50 in the test on HT-29, in the test with SR, with SF-539, in the test on HCC 2998, with EKVX and in the test with M19-MEL was > 100 µM (inactive) in each case. Further, the GI50 in the test on HCT-15 was > 100 µM.

For `CC(C)[C@H](COC(C)(C)C)/N=C/N1CSc2ccccc21`, the GI50 in the test on DLD-1 is 48.4 µM (inactive); with U-251, 32.5 µM (inactive); in the test with SK-MEL-2 it was 36.2 µM (inactive); in the test on OVCAR-4, 27.9 µM (inactive); in the test with M14, 36.3 µM (inactive); with OVCAR-5, > 100 µM (inactive). The GI50 in the test on SN12C is 28.1 µM (inactive); with HT-29, 28.9 µM (inactive); in the test with NCI-H226, 48.3 µM (inactive); with SF-539, 23.5 µM (inactive); in the test on HCC 2998 it was 47.3 µM (inactive); in the test with EKVX, 44.1 µM (inactive). For the same molecule, the GI50 in the test with IGROV-1 is 34 µM (inactive); in the test on COLO 205 it was 18.9 µM (inactive); in the test with M19-MEL it was 36.6 µM (inactive); with HCT-15 it was 84.9 µM.

As to `CCCCCCCCCCCCC(Br)C(C)=O` (centres undefined), the GI50 in the test with DLD-1, in the test with U-251, with SK-MEL-2, in the test with OVCAR-4, in the test with M14 and in the test with OVCAR-5 was > 100 µM (inactive) each time. Also, the GI50 in the test on SN12C, in the test on HT-29, in the test with NCI-H226, in the test on SF-539, with HCC 2998 and with EKVX was > 100 µM (inactive) throughout. In addition, the GI50 in the test on IGROV-1 is > 100 µM (inactive); in the test on COLO 205, > 100 µM (inactive); in the test with M19-MEL, > 100 µM (inactive); in the test on HCT-15, > 100 µM.

For the molecule `COc1ccc(/C=N/N=C(\N)NO)c(Cl)c1O`, the GI50 in the test with DLD-1 is 25.5 µM (inactive); in the test on U-251, 26.8 µM (inactive); in the test with SK-MEL-2, 14.2 µM (inactive); in the test on OVCAR-4, 15.8 µM (inactive); in the test on OVCAR-5, 1.91 µM (inactive); with SN12C, 27.4 µM (inactive). In addition, the GI50 in the test with NCI-H226 is 8.32 µM (inactive); in the test with SF-539, 12.2 µM (inactive); in the test with HCC 2998, 14.6 µM (inactive); in the test on EKVX, 10 µM (inactive); with IGROV-1 it was 44.9 µM (inactive); in the test on COLO 205, 33 µM (inactive). The GI50 with M19-MEL was 1.48 µM (inactive); in the test on HCT-15 it was 5.46 µM.

For the molecule `COC(c1ccccc1)C(c1ccccc1)N1CCOCC1` (centres undefined), the GI50 in the test with DLD-1, in the test with U-251, with SK-MEL-2, in the test with OVCAR-4, in the test on M14 and with OVCAR-5 was > 100 µM (inactive) throughout. The GI50 with SN12C, in the test with HT-29, with NCI-H226, with SF-539, with HCC 2998 and in the test with EKVX was > 100 µM (inactive) throughout. Further, the GI50 with IGROV-1, in the test on COLO 205 and in the test on M19-MEL was > 100 µM (inactive) in each case.

Consider `CCNC(=O)COc1ccc(Cl)cc1Cl`, for which the GI50 in the test with DLD-1, with U-251, with SK-MEL-2, in the test with M14, in the test on OVCAR-5 and in the test with SN12C was > 100 µM (inactive) each time. Besides, the GI50 in the test on HT-29 is > 100 µM (inactive); with NCI-H226, > 100 µM (inactive); in the test on SR, > 100 µM (inactive); in the test with SF-539 it was > 100 µM (inactive); in the test on EKVX, 55.7 µM (inactive); with IGROV-1, > 100 µM (inactive). Moreover, the GI50 in the test with COLO 205 was > 100 µM (inactive); in the test on M19-MEL, > 100 µM (inactive); in the test with HCT-15 it was > 100 µM.
